Here are results for 2 compounds from US20240197891A1, “PHARMACEUTICAL COMPOSITIONS COMPRISING POH DERIVATIVES” (UNIVERSITY OF SOUTHERN CALIFORNIA, priority 2021, published 2024).

Assay type in all cases: in vivo, mouse
The test system of one experiment is TNF-α. Kind of experiment: Serum TNF-α following UV exposure. How it is done:
(§1) SKH-1 hairless mice were treated with 10 mg/kg POH-LA conjugate freshly prepared daily. The POH-LA conjugate was formulated in glycerol:ethanol (90:10) while the control animals received the glycerol:ethanol vehicle only or the commercially available sunblock (Well & Good Sun Protection Wipes SPF 15). Additional test groups were treated with POH formulated in the glycerol:ethanol vehicle or linoleic acid formulated in the glycerol:ethanol vehicle. 50 μL of each formulation was placed on a area 1 cm^2 area that was exposed to the UV light. The mice were treated with their respective formulations after exposure to the UV light. In FIG. 22A, the mouse was treated with sunblock. In FIG. 22B, the mouse was treated with POH. In FIG. 22C, the mouse was treated with linoleic acid. In FIG. 22D, the mouse was treated with POH-LA conjugate. In FIG. 22D, the mouse was treated with the glycerol:ethanol vehicle only. The POH-LA conjugate, POH or linoleic acid solutions were gently spread on the skin surface and allowed to air dry. The sunblock mouse was gently wiped on the exposure area with the sunblock towelette. This exposure and treatment went on for a maximum of 10 weeks. Throughout the experimental period the animals were photographed and weighed. At the end of the experimental period the mice were photographed and euthanized, followed by skin and blood collection. Blood was analyzed for markers of inflammation and DNA recovered from the exposed area of the skin and analyzed for markers of DNA damage.
(§2) Furthermore, blood samples were taken from each mouse 4 hours after the last cutaneous treatment. About 0.5 mL of blood was collected by cardiac puncture […]. Serum was aliquoted in Eppendorf tubes and store at −80° C. as preparation for cytokine analyses. […]
(§3) Mice were treated with 10 mg/kg POH-LA conjugate freshly prepared daily. […] Blood was analyzed for markers of inflammation and DNA recovered from the exposed area of the skin and analyzed for markers of DNA damage.

The next experiment deals with IL-1β. Kind of experiment: Serum IL-1β following UV exposure. The procedure: as §1, §2, §3
In a further experiment the test system is IL-6. Kind of experiment: Serum IL-6 following UV exposure. The procedure: as §1, with “In FIG. 22D, the mouse was treated with the glycerol:ethanol vehicle only.” left out
as §2, §3

The compound `C=C(C)[C@@H]1CC=C(CO)CC1` [POH, perillyl alcohol] had a TNF-α levels with TNF-α of 103.2 ± 18.0 pg/mL. The “IL-1β serum levels increase” value in the experiment on IL-1β was found to be 8.5 ± 3.0 pg/mL. In addition, the IL-6 levels with IL-6 was 17.9 ± 2.8 pg/mL.

In the experiment with TNF-α, `C=C(C)[C@@H]1CC=C(COC(=O)CCCCCCC/C=C\C/C=C\CCCCC)CC1` [POH-LA conjugate, Octadeca-9,12-dienoic acid 4-isopropenyl-cyclohex-1-enylmethyl ester] yielded a TNF-α levels of 72.6 ± 22.8 pg/mL. In addition, in the experiment on IL-1β, the “IL-1β serum levels increase” value stood at 6.4 ± 2.5 pg/mL. In the experiment with IL-6, this compound returned an IL-6 levels of 15.2 ± 4.1 pg/mL.
